Source: US20220362396A1, “AMINO-PYRAZINECARBOXAMIDE COMPOUNDS, CONJUGATES, AND USES THEREOF” (Silverback Therapeutics, Inc., priority 2018, published 2022)
pEC50, pIC50: −log10 of the molar value.

What was measured:
[1] = test system: TGFβ/SMAD Signaling Pathway SBE reporter cell line; test: TGFβ reporter assay, in vitro small molecule screening (luciferase); type: cell-based; conditions: TGFβ stimulation, luminescence
How it was run: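 SBE luciferase reporter cells (~0.5×10^6 cells/mL) preincubated with compound 5-6 h at 37 °C in 0.5% FBS MEM, then stimulated with TGFβ (12 ng/mL stock) for 18 h. Luminescence read after luciferase substrate; EC50 from curve fits.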

TGFBR2 = target: T1, TGFBR2 (Homo sapiens, UniProt P37173); test: TGFBR2 RBC assay (enzyme inhibition assay, Reaction Biology Corp.); type: biochemical
T1 construct: purchased Reaction Biology Corp
T1 sequence (P37173 23-567): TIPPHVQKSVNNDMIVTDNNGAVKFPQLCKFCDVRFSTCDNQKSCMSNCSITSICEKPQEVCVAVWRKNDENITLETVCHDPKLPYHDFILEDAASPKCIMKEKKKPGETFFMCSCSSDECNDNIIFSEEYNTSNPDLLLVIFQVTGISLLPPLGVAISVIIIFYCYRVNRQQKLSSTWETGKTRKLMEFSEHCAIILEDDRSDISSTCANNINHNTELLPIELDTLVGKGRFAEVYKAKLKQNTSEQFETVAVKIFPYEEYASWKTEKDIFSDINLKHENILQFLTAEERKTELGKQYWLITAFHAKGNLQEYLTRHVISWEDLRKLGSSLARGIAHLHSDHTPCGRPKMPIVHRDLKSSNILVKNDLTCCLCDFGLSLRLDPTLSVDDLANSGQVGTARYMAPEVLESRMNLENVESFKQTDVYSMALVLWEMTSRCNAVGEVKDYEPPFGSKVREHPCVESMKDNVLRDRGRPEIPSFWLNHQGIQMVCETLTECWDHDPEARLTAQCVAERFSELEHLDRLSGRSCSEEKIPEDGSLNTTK
Method: Compounds of the disclosure were also assayed by Reaction Biology Corp. using the TGFBR2 RBC assay (enzyme inhibition assay). […] NT refers to not tested.

SMILES | pEC50 [1] | pIC50 (TGFBR2)
CC(COc1cccc(-c2cnc(N)c(C(=O)Nc3cnccc3N3CCOCC3)n2)c1)NC(=O)OC(C)(C)C (centres unmarked) [Compound 189] | < 6.00 | > 7.30
COc1cc(-c2ccncc2NC(=O)c2nc(-c3ccc(CCNC(=O)OCc4ccccc4)cc3)cnc2N)ccn1 [Compound 21] | 6.00 to 7.00 | < 6.00
NCCc1ccc(-c2cnc(N)c(C(=O)Nc3cnccc3-c3ccncc3)n2)cc1 [Compound 129] | 6.00 to 7.00 | 7.00 to 7.30
NCC1CN(c2ccncc2NC(=O)c2nc(-c3ccc(CCNC(=O)OCc4ccccc4)cc3)cnc2N)CCO1 (centres unmarked) [Compound 30] | < 6.00 | 6.00 to 7.00
CN(CC#N)c1ccncc1NC(=O)c1nc(-c2ccc(CCNC(=O)OCc3ccccc3)cc2)cnc1N [Compound 113] | < 6.00 | < 6.00
CCOC(=O)[C@@H]1CN(Cc2ccccc2)C[C@H]1c1ccc(-c2cnc(N)c(C(=O)Nc3cnccc3N3CCOCC3)n2)cc1 [Compound 226] | 6.00 to 7.00 | > 7.30
NCCc1ccc(-c2cnc(N)c(C(=O)Nc3cncc(Cl)c3N3CCOCC3)n2)cc1 [Compound 139] | 6.00 to 7.00 | > 7.30
Nc1ncc(-c2ccc(CCNC(=O)OCc3ccccc3)cc2)nc1C(=O)Nc1cnccc1-c1ccnnc1 [Compound 48] | < 6.00 | > 7.30
COCCCNc1ccncc1NC(=O)c1nc(-c2ccc(CCN)cc2)cnc1N [Compound 97] | < 6.00 | < 6.00
NCCCc1cccc(-c2cnc(N)c(C(=O)Nc3cnccc3N3CCOCC3)n2)c1 [Compound 182] | 6.00 to 7.00 | > 7.30
CC(C)(C)OC(=O)N1CCN(c2cnc(N)c(C(=O)Nc3cnccc3N3CCOCC3)n2)CC1 [Compound 115] | < 6.00 | < 6.00
Nc1ncc(-c2ccc(CCCCNC(=O)OCc3ccccc3)cc2)nc1C(=O)Nc1cnccc1N1CCOCC1 [Compound 74] | 6.00 to 7.00 | 7.00 to 7.30
CC(C)(C)OC(=O)NC1CCN(c2cnc(N)c(C(=O)Nc3cnccc3N3CCOCC3)n2)CC1 [Compound 122] | < 6.00 | < 6.00
NCCc1ccc(-c2cnc(N)c(C(=O)Nc3cnc4[nH]ccc4c3N3CCOCC3)n2)cc1 [Compound 134] | 6.00 to 7.00 | > 7.30
COc1cc(CCN)ccc1-c1cnc(N)c(C(=O)Nc2cnccc2N2CCOCC2)n1 [Compound 56] | 7.00 to 7.30 | 7.00 to 7.30
Nc1ncc(-c2c(Cl)cccc2Cl)nc1C(=O)Nc1cnccc1N1CCOCC1 [Compound 173] | 6.00 to 7.00 | < 6.00
NCCc1ccc(-c2cnc(N)c(C(=O)Nc3cnccc3CN3CCCC3)n2)cc1 [Compound 93] | 6.00 to 7.00 | 6.00 to 7.00
NCCc1ccc(-c2cnc(N)c(C(=O)Nc3cncc(-c4cccc(N)c4)c3)n2)cc1 [Compound 149] | < 6.00 | 7.00 to 7.30
Nc1ncc(-c2ccc(CCNC(=O)OCc3ccccc3)cc2)nc1C(=O)Nc1cnccc1CN1CCCC1 [Compound 72] | 6.00 to 7.00 | 7.00 to 7.30
COC1CCN(c2ccncc2NC(=O)c2nc(-c3ccc(CCNC(=O)OCc4ccccc4)cc3)cnc2N)C1 (centres unmarked) [Compound 53] | < 6.00 | < 6.00
CC(C)(C)OC(=O)NCC1CCc2cc(-c3cnc(N)c(C(=O)Nc4cnccc4N4CCOCC4)n3)ccc2O1 (centres unmarked) [Compound 233] | 6.00 to 7.00 | > 7.30
Nc1ncc(-c2ccc(CCNC(=O)OCc3ccccc3)cc2)nc1C(=O)Nc1cnccc1N1CCC(F)(F)CC1 [Compound 29] | 6.00 to 7.00 | < 6.00
Nc1ncc(-c2ccc(CCNC(=O)OCc3ccccc3)cc2)nc1C(=O)Nc1cnccc1-c1ccnc2ccccc12 [Compound 19] | < 6.00 | < 6.00
C[C@H]1CN(c2ccncc2NC(=O)c2nc(-c3ccc(CCNC(=O)OCc4ccccc4)cc3)cnc2N)CCO1 [Compound 28] | 6.00 to 7.00 | 6.00 to 7.00
CCc1nccn1-c1ccncc1NC(=O)c1nc(-c2ccc(CCN)cc2)cnc1N [Compound 140] | < 6.00 | > 7.30
Nc1ncc(-c2ccc(CCNC(=O)OCc3ccccc3)cc2)nc1C(=O)Nc1cnccc1-c1ccnc(Cl)c1 [Compound 18] | 6.00 to 7.00 | < 6.00
Nc1ncc(N2CCNCC2)nc1C(=O)Nc1cnccc1N1CCOCC1 [Compound 118] | < 6.00 | < 6.00

Next, values leading:

pEC50 [1] | pIC50 (TGFBR2) | SMILES
< 6.00 | > 7.30 | Nc1ncc(-c2ccc(OCC[C@H](N)C(=O)O)cc2)nc1C(=O)Nc1cnccc1N1CCOCC1 [Compound 268]
7.00 to 7.30 | 7.00 to 7.30 | Nc1ncc(-c2ccc(CN3CCNCC3)cc2)nc1C(=O)Nc1cnccc1N1CCOCC1 [Compound 91]
6.00 to 7.00 | > 7.30 | Nc1ncc(-c2ccc(O[C@@H]3CCN(C(=O)OCc4ccccc4)C3)cc2)nc1C(=O)Nc1cnccc1N1CCOCC1 [Compound 162]
6.00 to 7.00 | > 7.30 | COc1cccc(-c2cnc(N)c(C(=O)Nc3cnccc3N3CCOCC3)n2)c1 [Compound 155]
6.00 to 7.00 | > 7.30 | Nc1ncc(-c2ccc3c(c2)C(O)CCC3)nc1C(=O)Nc1cnccc1N1CCOCC1 (centres unmarked) [Compound 251]
6.00 to 7.00 | 7.00 to 7.30 | Nc1ncc(-c2ccccc2Cl)nc1C(=O)Nc1cnccc1N1CCOCC1 [Compound 151]
< 6.00 | > 7.30 | Nc1ncc(-c2ccc(O[C@H]3C[C@@H](N)C3)cc2)nc1C(=O)Nc1cnccc1N1CCOCC1 [Compound 224]
6.00 to 7.00 | > 7.30 | NCCNc1ccc(-c2cnc(N)c(C(=O)Nc3cnccc3N3CCOCC3)n2)cc1 [Compound 271]
7.00 to 7.30 | > 7.30 | Nc1ncc(-c2ccc(O[C@H]3CCCNC3)cc2)nc1C(=O)Nc1cnccc1N1CCOCC1 [Compound 169]
< 6.00 | 6.00 to 7.00 | Nc1ncc(-c2ccc(C[C@@H](N)C(=O)O)cc2)nc1C(=O)Nc1cnccc1N1CCOCC1 [Compound 197]
7.00 to 7.30 | > 7.30 | Nc1ncc(-c2ccc(O[C@@H]3CCCNC3)cc2)nc1C(=O)Nc1cnccc1N1CCOCC1 [Compound 168]
6.00 to 7.00 | > 7.30 | CC(N)COc1ccc(-c2cnc(N)c(C(=O)Nc3cnccc3N3CCOCC3)n2)cc1 (centres unmarked) [Compound 205]
6.00 to 7.00 | > 7.30 | NCCc1cccc(-c2cnc(N)c(C(=O)Nc3cnccc3N3CCOCC3)n2)c1 [Compound 181]
6.00 to 7.00 | > 7.30 | Nc1ncc(-c2ccc3c(c2)CCC3)nc1C(=O)Nc1cnccc1N1CCOCC1 [Compound 185]
7.00 to 7.30 | > 7.30 | NCCCc1ccc(-c2cnc(N)c(C(=O)Nc3cnccc3N3CCOCC3)n2)cc1 [Compound 2.1, 3-Amino-6-(4-(3-aminopropyl)phenyl)-N-(4-morpholinopyridin-3-yl)pyrazine-2-carboxamide]
6.00 to 7.00 | > 7.30 | NCC1NCCc2cc(-c3cnc(N)c(C(=O)Nc4cnccc4N4CCOCC4)n3)ccc21 (centres unmarked) [Compound 235]
6.00 to 7.00 | 7.00 to 7.30 | Nc1ncc(-c2ccc3c(c2)CC(N)CN3)nc1C(=O)Nc1cnccc1N1CCOCC1 (centres unmarked) [Compound 239]
6.00 to 7.00 | > 7.30 | CC(C)(C)OC(=O)N[C@H]1C[C@@H](Oc2ccc(-c3cnc(N)c(C(=O)Nc4cnccc4N4CCOCC4)n3)cc2)C1 [Compound 223]
6.00 to 7.00 | > 7.30 | NCCOc1cccc(-c2cnc(N)c(C(=O)Nc3cnccc3N3CCOCC3)n2)c1 [Compound 184]
7.00 to 7.30 | > 7.30 | NCc1ccc(-c2cnc(N)c(C(=O)Nc3cnccc3N3CCOCC3)n2)cc1 [Compound 7]
< 6.00 | > 7.30 | CC(COc1ccc(-c2cnc(N)c(C(=O)Nc3cnccc3N3CCOCC3)n2)cc1)NC(=O)OC(C)(C)C (centres unmarked) [Compound 204]
6.00 to 7.00 | > 7.30 | COC(=O)[C@H](N)CCOc1ccc(-c2cnc(N)c(C(=O)Nc3cnccc3N3CCOCC3)n2)cc1 [Compound 269]
6.00 to 7.00 | > 7.30 | Nc1ncc(-c2ccc3c(c2)CCCO3)nc1C(=O)Nc1cnccc1N1CCOCC1 [Compound 174]
6.00 to 7.00 | > 7.30 | CC1(C)CCNc2ccc(-c3cnc(N)c(C(=O)Nc4cnccc4N4CCOCC4)n3)cc21 [Compound 214]
6.00 to 7.00 | > 7.30 | Nc1ncc(-c2ccc3c(c2)CC(O)C3)nc1C(=O)Nc1cnccc1N1CCOCC1 (centres unmarked) [Compound 248]
